The test has as its system A549 (Human lung cancer cell line). Briefly: Effect of combination of sulfonamide compound and other antitumor agent (CellTiter-Glo, combination index): A549. Background: In ATP-based viability assays light output follows the ATP content of the culture.
Where [1] appears, read: Example Compound 14 1970 nM + Trifluridine 288 nM.
Setting [2] is: Example Compound 14 2950 nM + Trifluridine 431 nM.
The mark [3] stands for this setting: Example Compound 209A 635 nM + Trifluridine 431 nM.
[4] abbreviates: Example Compound 235A 780 nM + Trifluridine 431 nM.
[5] abbreviates: Example Compound 14 2950 nM + Sunitinib 1870 nM.
Where [6] appears, read: Example Compound 14 4420 nM + Sunitinib 2800 nM.
Setting [7] is: Example Compound 209A 635 nM + Sunitinib 1870 nM.
[8] abbreviates: Example Compound 209A 952 nM + Sunitinib 2800 nM.
Setting [9] is: Example Compound 235A 780 nM + Sunitinib 1870 nM.
Setting [10] is: Example Compound 235A 1170 nM + Sunitinib 2810 nM.
Where [11] appears, read: Example Compound 14 4420 nM + Lapatinib 6000 nM.
Where [12] appears, read: Example Compound 209A 952 nM + Lapatinib 6000 nM.
Where [13] appears, read: Example Compound 235A 1170 nM + Lapatinib 6010 nM.
The mark [14] stands for this setting: Example Compound 14 4420 nM + Cabozantinib 6000 nM.
Setting [15] is: Example Compound 209A 952 nM + Cabozantinib 6000 nM.
The mark [16] stands for this setting: Example Compound 235A 1170 nM + Cabozantinib 6010 nM.
Setting [17] is: Example Compound 14 4420 nM + 5-Fluorouracil 2700 nM.
Where [18] appears, read: Example Compound 209A 952 nM + 5-Fluorouracil 4310 nM.
Where [19] appears, read: Example Compound 235A 1170 nM + 5-Fluorouracil 4310 nM.
Where [20] appears, read: Example Compound 14 4420 nM + Olaparib 14800 nM.
Setting [21] is: Example Compound 209A 952 nM + Olaparib 14800 nM.
The mark [22] stands for this setting: Example Compound 235A 1170 nM + Olaparib 14800 nM.
Setting [23] is: Example Compound 14 4420 nM + Midostaurin 251 nM.
The mark [24] stands for this setting: Example Compound 209A 952 nM + Midostaurin 251 nM.
Setting [25] is: Example Compound 235A 1170 nM + Midostaurin 251 nM.
[26] abbreviates: Example Compound 14 4420 nM + Etoposide 3790 nM.
The mark [27] stands for this setting: Example Compound 209A 952 nM + Etoposide 3790 nM.
Setting [28] is: Example Compound 235A 1170 nM + Etoposide 3790 nM.
Where [29] appears, read: Example Compound 14 4420 nM + Talazoparib 7990 nM.
[30] abbreviates: Example Compound 209A 952 nM + Talazoparib 8000 nM.
Where [31] appears, read: Example Compound 235A 1170 nM + Talazoparib 8000 nM.
Setting [32] is: Example Compound 14 4420 nM + Oxaliplatin 1060 nM.
[33] abbreviates: Example Compound 209A 952 nM + Oxaliplatin 1060 nM.
[34] abbreviates: Example Compound 235A 1170 nM + Oxaliplatin 1060 nM.
Setting [35] is: Example Compound 14 4420 nM + Azacytidine 4080 nM.
Setting [36] is: Example Compound 209A 635 nM + Azacytidine 2740 nM.
Setting [37] is: Example Compound 209A 952 nM + Azacytidine 4110 nM.
[38] abbreviates: Example Compound 235A 780 nM + Azacytidine 2740 nM.
The mark [39] stands for this setting: Example Compound 235A 1170 nM + Azacytidine 4110 nM.
Setting [40] is: Example Compound 14 4420 nM + Luminespib 13.5 nM.
Setting [41] is: Example Compound 209A 952 nM + Luminespib 13.5 nM.
[42] abbreviates: Example Compound 235A 1750 nM + Luminespib 8.13 nM.

Description: Each cell line was seeded at 90 L/well to a 96-well culture plate (Thermo Fisher Scientific, Inc.) according to the above tables. The cell-seeded plate was cultured in an incubator set to 37° C. and 500 CO2. On the day following seeding, varying concentrations of the sulfonamide compound and the other antitumor agent were added in combination to the cells. […] The serial dilutions of each compound, or DW was added at 5μL/well to the plate such that each compound and DW, or the sulfonamide compound and the other antitumor agent were combined. […] The plate after the addition was cultured at 37° C. for 3 days under 5% CO2 conditions.
Three days later, CellTiter-Glo(R) 2.0 Reagent (Promega Corporation) was added at 100 μL/well, and the amount of luminescence was measured using a plate reader EnSpire(R) Multimode Plate Reader (PerkinElmer Co., Ltd.).
An average value from 3 wells was calculated as to each drug condition from the obtained data, and cell survival rate normalized against control wells supplemented with the vehicle (DW) was calculated. A Fa (fractional inhibition) value was calculated by subtracting the cell survival rate from 1.

With `O=c1[nH]c(=O)n([C@H]2C[C@H](O)[C@@H](CO)O2)cc1C(F)(F)F` [Trifluridine, trifluridine], the CI value is recorded as 0.892 under setting [1]; 0.844 under setting [2]; 0.678 (Example Compound 14 4420 nM + Trifluridine 645 nM); 0.791 (Example Compound 14 6640 nM + Trifluridine 969 nM); 0.897 under setting [3]; 0.733 (Example Compound 209A 952 nM + Trifluridine 646 nM). The CI value runs as follows: (Example Compound 209A 1430 nM + Trifluridine 970 nM) 0.775; under setting [4], 0.869; (Example Compound 235A 1170 nM + Trifluridine 646 nM) 0.680; (Example Compound 235A 1750 nM + Trifluridine 967 nM) 0.739. Moreover, the Fa value runs as follows: under setting [1], 0.4363; under setting [2], 0.6485; under setting [3], 0.5907; under setting [4], 0.5850.

Turning to `CCN(CC)CCNC(=O)c1c(C)[nH]c(/C=C2\C(=O)Nc3ccc(F)cc32)c1C` [Sunitinib, sunitinib], the CI value under setting [5] was 0.693; the CI value under setting [6] is listed as 0.728; the CI value under setting [7] was found to be 0.688; the CI value under setting [8] is recorded as 0.723; the CI value under setting [9] is listed as 0.709; the CI value under setting [10] is on record as 0.675. Further, the Fa value under setting [5] came to 0.7017; the Fa value under setting [6] turned out to be 0.8248; the Fa value under setting [7] is 0.6919; the Fa value under setting [8] was found to be 0.8234; the Fa value under setting [9] came out at 0.6775; the Fa value under setting [10] stood at 0.8225.

Regarding `CS(=O)(=O)CCNCc1ccc(-c2ccc3ncnc(Nc4ccc(OCc5cccc(F)c5)c(Cl)c4)c3c2)o1` [Lapatinib, lapatinib], the CI value by setting is: under setting [11], 0.512; under setting [12], 0.443; under setting [13], 0.417. The Fa value under setting [11] is 0.8641, the Fa value under setting [12] amounted to 0.8816 and the Fa value under setting [13] amounted to 0.8726.

For the compound `COc1cc2nccc(Oc3ccc(NC(=O)C4(C(=O)Nc5ccc(F)cc5)CC4)cc3)c2cc1OC` [Cabozantinib, cabozantinib], the CI value reads like this: under setting [14], 0.868; under setting [15], 0.486; under setting [16], 0.871. In addition, the Fa value reads like this: under setting [14], 0.7829; under setting [15], 0.8982; under setting [16], 0.7659.

Consider `O=c1[nH]cc(F)c(=O)[nH]1` [5-Fluorouracil, 5-fluorouracil], for which the CI value reads like this: under setting [17], 0.880; under setting [18], 0.853; under setting [19], 0.880. Besides, the Fa value under setting [17] was determined as 0.6619, the Fa value under setting [18] is reported as 0.7187 and the Fa value under setting [19] is recorded as 0.6738.

With `O=C(c1cc(Cc2n[nH]c(=O)c3ccccc23)ccc1F)N1CCN(C(=O)C2CC2)CC1` [Olaparib, olaparib], the CI value under setting [20] came to 0.668, the CI value under setting [21] came out at 0.478 and the CI value under setting [22] was 0.683. For the same compound, the Fa value runs as follows: under setting [20], 0.7031; under setting [21], 0.7947; under setting [22], 0.6832.

For `CO[C@@H]1[C@H](N(C)C(=O)c2ccccc2)C[C@H]2O[C@]1(C)n1c3ccccc3c3c4c(c5c6ccccc6n2c5c31)C(=O)NC4` [Midostaurin, midostaurin], the CI value came to 0.719 under setting [23], 0.583 under setting [24] and 0.775 under setting [25]. Further, the Fa value is, setting by setting: under setting [23], 0.8117; under setting [24], 0.8520; under setting [25], 0.7639.

For the compound `COc1cc([C@@H]2c3cc4c(cc3[C@@H](O[C@@H]3O[C@@H]5CO[C@@H](C)O[C@H]5[C@H](O)[C@H]3O)[C@H]3COC(=O)[C@H]23)OCO4)cc(OC)c1O` [Etoposide, etoposide], the CI value is listed as 0.707 under setting [26], 0.635 under setting [27] and 0.763 under setting [28]. In addition, the Fa value under setting [26] was 0.7245, the Fa value under setting [27] is 0.7460 and the Fa value under setting [28] is listed as 0.6978.

`Cn1ncnc1[C@H]1c2n[nH]c(=O)c3cc(F)cc(c23)N[C@@H]1c1ccc(F)cc1` [Talazoparib, talazoparib]: the CI value is, setting by setting: under setting [29], 0.540; under setting [30], 0.422; under setting [31], 0.585. The Fa value runs as follows: under setting [29], 0.7406; under setting [30], 0.7998; under setting [31], 0.6990.

As to `O=C1[O][Pt]2([NH][C@@H]3CCCC[C@H]3[NH]2)[O]C1=O` [Oxaliplatin, oxaliplatin], the CI value reads like this: under setting [32], 0.829; under setting [33], 0.762; under setting [34], 0.793. Besides, the Fa value runs as follows: under setting [32], 0.7498; under setting [33], 0.7832; under setting [34], 0.7355.

Take `Nc1ncn([C@@H]2O[C@H](CO)[C@@H](O)[C@H]2O)c(=O)n1` [Azacytidine, azacitidine]: the CI value reads like this: under setting [35], 0.744; under setting [36], 0.850; under setting [37], 0.520; under setting [38], 0.822; under setting [39], 0.767. For the same compound, the Fa value reads like this: under setting [35], 0.7570; under setting [36], 0.6005; under setting [37], 0.8264; under setting [38], 0.5392; under setting [39], 0.6909.

As to `CCNC(=O)c1noc(-c2cc(C(C)C)c(O)cc2O)c1-c1ccc(CN2CCOCC2)cc1` [Luminespib, luminespib], the CI value under setting [40] was found to be 0.786, the CI value under setting [41] is given as 0.832 and the CI value under setting [42] was found to be 0.819. Further, the Fa value is, setting by setting: under setting [40], 0.8373; under setting [41], 0.8172; under setting [42], 0.8795.

The record behind these values is US20200405697A1, “Antitumor Agent” (Taiho Pharmaceutical Co., Ltd, priority 2017, published 2020).
